Measured values as given in patent US10183155B2, “Implantable devices and methods for evaluation of active agents” (Kibur Medical, Inc., priority 2011, dated 2019).
Several values for one entry are separate records, joined by “and”; a condition that tells them apart may be missing. Equal entries are not always repeated. Values belong to the molecule of their own block, whether it stands above or below them.

How the values were obtained:
BT474 tumors = assay: Implantable device assay: apoptosis (cleaved caspase 3) after device delivery in BT474 tumors; assay type: in vivo, mice; conditions: for increase of apoptosis by addition to microwells preloaded with doxorubicin: 24 hours, vs doxorubicin alone; for apoptotic index (AI): device-delivery, 24 hours post implantation
Protocol: (§1) Doxorubicin was loaded into a microwell in the implantable device. The device was implanted into tumor tissue. This was repeated for three different murine human cell tumor models (BT474, PC3, A375). After implantation for 20 hours, the device and surrounding tissue was removed, and embedded in acrylic for cross-sectioning and histopathological analysis.
(§2) Fluorescent imaging techniques were used on sample cross-sections to determine the doxorubicin concentration and diffusion profile within the tissue surrounding the device. Standard histopathological techniques, such as but not limited to, immunochemical techniques, can be used to measure a desired characteristic within the surrounding tissue to determine effectiveness of a compound. In this instance, cleaved caspase 3 antibodies were used to detect cells undergoing apoptosis.
(§3) Murine A375, BT474, or PC3 tumor models were used to determine whether the device measurement of local microdose response is a satisfactory predictor of a systemic response in different tumor models. Doxorubicin was placed within the microwells of implantable devices. The devices were implanted into A375, BT474, or PC3 tumors on mice. Apoptosis, as measured by cleaved caspase 3 expression, was used to evaluate drug efficacy at 24 hours post implantation or systemic dosing.
(§4) Sunitinib or lapatinib was loaded into microwells in the implantable device that were preloaded with doxorubicin. The device was then implanted into BT474 tumors. The device and surrounding tissue was removed 24 hours later and apoptosis was evaluated by cleaved caspase 3 expression using standard immunohistochemical assays.

MDA-MB231 tumors = assay: Implantable device assay: apoptosis (cleaved caspase 3) after device delivery in MDA-MB231 tumors; assay type: in vivo, mice
Protocol: as §4, with “Lapatinib” for “Sunitinib or lapatinib”, “MDA-MB231” for “BT474”

A375 tumors [1] = assay: Implantable device assay: apoptosis (cleaved caspase 3) after device delivery in A375 tumors; assay type: in vivo, mice
Protocol: as §1, §2
Efficacy of doxorubicin at different concentration gradients within the tissue was quantified using a two-step analysis. […]
Second, the effect of the drug on a measurable characteristic in each concentration region is determined. In this example, the amount of cells undergoing apoptosis, as determined by cleaved caspase 3 antibody binding, was evaluated in each doxorubicin concentration region. Efficacy of the doxorubicin released from the microwell is determined by antibody staining of tissue sections divided into regions corresponding to local compound exposure.
Varying percentages (1% and 5% by weight) of doxorubicin was dissolved in PEG having a molecular weight of 1000 or 1450. […] After 20 hours, the device and surrounding tissue was removed and analyzed for doxorubicin concentration and cleaved caspase 3 expression, as previously described.
as §3, with “Doxorubicin was placed within the microwells of implantable devices. The devices were implanted into A375, BT474, or PC3 tumors on mice.” left out, “dosing. […]” for “dosing.”

PC3 tumors [2] = assay: Implantable device assay: apoptosis (cleaved caspase 3) after device delivery in PC3 tumors; assay type: in vivo, mice; conditions: for apoptotic index (AI): device-delivery, 24 hours post implantation
Protocol: as §1, §2, §3
The implantable device assay was tested in murine tumor models (A375 and PC3) for its ability to predict the response of tumors to several other cytotoxic and targeted anti-cancer agents. Vemurafenib is an enzyme inhibitor that specifically targets the BRAF V600E mutation. A375 tumors have this mutation. […] Response to vemurafenib was measured by intratumor apoptotic response using the implantable device assay.
as §4, with “Sunitinib” for “Sunitinib or lapatinib”, “PC3” for “BT474”

A375 tumors [3] = assay: Local tumor apoptosis (cleaved caspase 3) after systemic dosing in A375 tumors; assay type: in vivo, mice; conditions: systemic dosing 8 mg/kg, 24 hours
Protocol: (§5) To compare the efficacy of device delivered doxorubicin to efficacy achieved with systemic delivery, mice bearing A375 or PC3 tumors were systemically administered an 8 mg/kg dose of doxorubicin. Apoptosis, as measured by cleaved caspase 3 expression, was used to evaluate drug efficacy at 24 hours post implantation or systemic dosing.

PC3 tumors [4] = assay: Local tumor apoptosis (cleaved caspase 3) after systemic dosing in PC3 tumors; assay type: in vivo, mice; conditions: systemic dosing 8 mg/kg, 24 hours
Protocol: as §5

[5] = Doxorubicin concentration in tumor tissue surrounding the implanted device (fluorescent imaging); assay type: in vivo, mice; conditions: mouse, pure doxorubicin in microwell, 20 hours post implantation
Source text: as §2
Varying percentages (1% and 5% by weight) of doxorubicin was dissolved in PEG having a molecular weight of 1000 or 1450. Pure powder doxorubicin and the PEG-doxorubicin formulations were loaded into microwells in the device. The device was implanted into tumors. After 20 hours, the device and surrounding tissue was removed and analyzed for doxorubicin concentration and cleaved caspase 3 expression, as previously described.
Microwells were loaded with pure doxorubicin and the device was implanted into tumor tissue. The device and surrounding tissue was removed at varying times post-implantation. The concentration of doxorubicin in the surrounding tissue was evaluated using immunohistochemical techniques and fluorescent imaging.
(§6) Doxorubicin was administered systemically at 8 mg/kg to BT474 bearing mice. Intratumor concentration of doxorubicin was analyzed by standard immunohistochemical and fluorescence techniques previously described and standard in the art. Doxorubicin was loaded into microwells in the device. The device was implanted in a BT474 tumor as in Example 7. After 20 hours, the device and surrounding tissue was excised and doxorubicin concentration in the surrounding tumor tissue was analyzed.

[6] = Intratumor concentration of doxorubicin after systemic administration; assay type: in vivo; conditions: systemic 8 mg/kg, BT474 bearing mice
Protocol: as §6

Ki67 = Ki67 protein expression by immunohistochemistry around device in BT474 tumor; assay type: in vivo; conditions: 20 hour exposure, region closest to the microwell
Protocol: (§7) Doxorubicin was loaded into microwells in the device and implanted within a BT474 tumor. After 20 hours, the device and surrounding tissue was removed. Protein expression of cleaved caspase 3 and Poly(ADP-ribose) polymerase (PARP) was evaluated by immunohistochemical analysis. These biomarkers are indicators of apoptosis. Protein expression of Ki67 and survivin was evaluated by immunohistochemical analysis. Ki67 is a biomarker for monitoring reduced cell proliferation rates. Survivin is a biomarker for monitoring reduced inhibition of apoptosis.
(§8) Effect of 20 hour doxorubicin exposure on the expression of the biomarkers was determined as described in Example 4. However, here four concentration gradient regions of approximately 100 μm were determined and evaluated.

survivin = assay: Survivin protein expression by immunohistochemistry around device in BT474 tumor; assay type: in vivo; conditions: 20 hour exposure, region closest to the microwell
Protocol: as §7, §8

[7] = device-delivery, single agent, MDA-MB231 tumors

SMILES: CS(=O)(=O)CCNCc1ccc(-c2ccc3ncnc(Nc4ccc(OCc5cccc(F)c5)c(Cl)c4)c3c2)o1 [lapatinib]
increase of apoptosis by addition to microwells preloaded with doxorubicin (BT474 tumors): 355%
elevation of apoptotic response by addition to doxorubicin in the microwells (MDA-MB231 tumors; MDA-MB-231 tumors, 24 hours, vs doxorubicin alone): 140%
apoptotic index (AI) (MDA-MB231 tumors; lapatinib added to doxorubicin in the microwells, MDA-MB-231 tumors, 24 hours): 17.5%

SMILES: CCCS(=O)(=O)Nc1ccc(F)c(C(=O)c2c[nH]c3ncc(-c4ccc(Cl)cc4)cc23)c1F [vemurafenib]
intratumor apoptotic response greater in A375 model as compared to PC3 model (A375 tumors [1]; device-delivery, A375 (BRAF V600E) vs PC3): 250%

SMILES: CCN(CC)CCNC(=O)c1c(C)[nH]c(/C=C2\C(=O)Nc3ccc(F)cc32)c1C [sunitinib]
increase of apoptosis by addition to microwells preloaded with doxorubicin (BT474 tumors): 66%
increase of apoptosis by addition to microwells preloaded with doxorubicin (PC3 tumors [2]; 24 hours, vs doxorubicin alone): 330%

SMILES: CC[C@@]1(O)C(=O)OCc2c1cc1n(c2=O)Cc2cc3c(CN(C)C)c(O)ccc3nc2-1 [topotecan]
apoptotic index (AI) (BT474 tumors): 2.2%
apoptotic index (AI) (PC3 tumors [2]): 6.3%

concentration at 20 h ([5]; 0-130 μm from the microwell): 15000 to 20000 ng/g
concentration at 20 h ([5]; approximately 130-200 μm from the microwell): 8000 to 13000 ng/g
concentration at 20 h ([5]; approximately 200-300 μm from the microwell): 3000 to 7000 ng/g
intratumor doxorubicin concentration, areas of high concentration [6]: 8 to 13 mg/kg
intratumor doxorubicin concentration, areas of low concentration [6]: 3 to 7 mg/kg
SMILES: COc1cccc2c1C(=O)c1c(O)c3c(c(O)c1C2=O)C[C@@](O)(C(=O)CO)C[C@@H]3O[C@H]1C[C@H](N)[C@H](O)[C@H](C)O1 [doxorubicin]
number of cleaved caspase 3 positive cells as percent area of DAB staining (A375 tumors [1]; 20 hours, A375 compared with BT474 and PC3, approximately 100-250 μm from the microwell): greatest number of cells to undergo apoptosis
apoptotic index (AI) (A375 tumors [1]; device-delivery, A375 tumors, 24 hours post implantation): 55%
apoptotic index (AI) (BT474 tumors): 18%
apoptotic index (AI) (PC3 tumors [2]): 6%
apoptotic index (AI) (MDA-MB231 tumors; [7]): 7.4%
local tumor apoptosis, apoptotic index (AI) (A375 tumors [3]): 34.9%
local tumor apoptosis, apoptotic index (AI) (PC3 tumors [4]): 8.7%
Ki67 expression (Ki67): undetectable levels
Survivin expression (survivin): undetectable

SMILES: Nc1ccn([C@@H]2O[C@H](CO)[C@@H](O)C2(F)F)c(=O)n1 [gemcitabine]
apoptotic index (AI) (BT474 tumors): 2.0% and 2.6%
apoptotic index (AI) (PC3 tumors [2]): 12.5%
apoptotic index (AI) (MDA-MB231 tumors; [7]): 21.8%
